# In patent US11786517B2, “Methods of treatment using a JAK inhibitor compound” (THERAVANCE BIOPHARMA R&D IP, LLC, priority 2017, dated 2023):
# Tests used:
# [1] = Ocular pharmacokinetics in rabbit eyes; assay type: in vivo, New Zealand white rabbits
# Experimental: The objective of this assay was to determine the pharmacokinetics of the test compound in rabbit ocular tissues.
# The compound of the invention, 5-ethyl-2-fluoro-4-(3-(5-(1-methylpiperidin-4-yl)-4,5,6,7-tetrahydro-1H-imidazo[4,5-c]pyridin-2-yl)-1H-indazol-6-yl)phenol (1) was dissolved in either 10% 2-hydroxypropyl-β-cyclodextrin to attain a target concentration of 4 mg/mL or in purified water to attain a target concentration of 1 mg/mL. Bilateral intravitreal injection (50 μL/eye) of the solution of test compound was administered to New Zealand white rabbits in two dose groups, 200 μg/eye and 50 μg/eye, respectively, for the cyclodextrin and water vehicle formulations, respectively. The test compound concentration was measured in ocular tissues: vitreous, aqueous, retina/choroid and iris-ciliary body at pre-determined time points post injection (30 min, 4 h, 1 d, 3 d, 7 d, 14 d). Two rabbits (four eyes) were dosed for each time point.
# A suspension formulation was prepared by combining crystalline compound 1 of Example 1 with 0.5% hydroxypropyl methylcellulose (HPMC E5)+0.02% Tween 80 to attain a target concentration of 10 mg/mL. Bilateral intravitreal injection (50 μL/eye) of the suspension of test compound was administered to New Zealand white rabbits (500 μg/eye). The test compound concentration was measured in ocular tissues as in the […] at 30 min, 2 wks, 4 wks, 6 wks, and 8 wks post injection. […] The behavior is consistent with the solubility of compound 1 in the vehicle and the ocular pharmacokinetic behavior in the solution formulation. The drug concentration in plasma was measured and found to be at least 3 orders of magnitude lower than the concentration in vitreous tissue.
# [2] = system: IFNγ induced pSTAT1 in rabbit retina/choroid tissue; test: Pharmacodynamic assay: inhibition of IFNγ-induced pSTAT1 in rabbit eyes; assay type: in vivo, New Zealand White rabbits; details: 0.9 mg intravitreal suspension, 1 week pre-treatment
# Experimental: The ability of a single intravitreal administration of test compound to inhibit interferon-gamma (IFNγ) induced phosphorylation of STAT1 protein (pSTAT1) was measured in rabbit retina/choroid tissue.
# A suspension formulation was prepared by combining compound 1 of Example 1, with 0.5% hydroxypropyl methylcellulose (HPMC E5), 0.02% Tween 80, and 9 mg/mL sodium chloride in purified water to attain a target concentration of 20 mg/mL.
# Male, New Zealand White rabbits (Liveon Biolabs, India) were used for the studies. Animals were acclimated after arrival at the research facilities (Jubilant Biosys Ltd., India). Each rabbit was given a total of two intravitreal (IVT) injections with a total dose volume of 50 μL per eye. The first IVT injection (45 μL per eye) delivered 0.9 mg of test compound or vehicle. One week later, a second IVT injection (5 μL per eye) delivered IFNγ (1 μg/eye; stock solution 1 mg/mL; Kingfisher Biotech) or vehicle for the induction of IP-10. […]
# Tissues were collected 2 hours after the second IVT injection with IFNγ. Retina/choroid tissues (R/C) were collected and homogenized, and pSTAT1 levels were measured by quantitative Western Blot on the ProteinSimple WES instrument. The percent inhibition of IFNγ-induced pSTAT1 was calculated in comparison to the vehicle/vehicle and vehicle/IFNγ groups.
structure (smiles),measurement,setting,value
"CCc1cc(O)c(F)cc1-c1ccc2c(-c3nc4c([nH]3)CCN(C3CCN(C)CC3)C4)n[nH]c2c1 [Example 1, Crystalline hydrate of 5-ethyl-2-fluoro-4-(3-(5-(1-methylpiperidin-4-yl)-4,5,6,7-tetrahydro-1H-imidazo[4,5-c]pyridin-2-yl)-1H-indazol-6-yl)phenol]",drug concentration in plasma lower than concentration in vitreous tissue,"[1]; intravitreal injection, listed as compound 1 of Example 1",at least 3 orders of magnitude
same,"clearance rate, linear decrease in drug concentration in the vitreous","[1]; intravitreal suspension 500 μg/eye, 30 min to 6 weeks",approximately 3 μg/mL/day
same,inhibition of IFNγ-induced pSTAT1,[2],85%
